In one assay the target is T1, RARβ (Homo sapiens, UniProt P10826).
T1 construct: made in house; host or cells: Baculovirus expression (insect cell extract)
T1 sequence (P10826 1-455): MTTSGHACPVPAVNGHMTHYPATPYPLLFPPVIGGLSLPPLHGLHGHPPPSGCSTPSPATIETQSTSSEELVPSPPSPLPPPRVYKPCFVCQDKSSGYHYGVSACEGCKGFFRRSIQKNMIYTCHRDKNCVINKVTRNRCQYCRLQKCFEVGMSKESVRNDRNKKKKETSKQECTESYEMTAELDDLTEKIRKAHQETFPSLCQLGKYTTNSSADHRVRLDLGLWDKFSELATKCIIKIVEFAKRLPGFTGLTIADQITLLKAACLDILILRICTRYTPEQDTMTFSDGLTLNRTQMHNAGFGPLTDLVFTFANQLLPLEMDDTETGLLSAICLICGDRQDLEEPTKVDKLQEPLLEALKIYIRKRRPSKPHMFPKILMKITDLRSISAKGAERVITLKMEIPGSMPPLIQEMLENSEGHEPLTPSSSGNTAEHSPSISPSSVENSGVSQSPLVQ
Nature of the assay: Ligand binding assay, RARβ. The protocol: (§1) All binding assays were performed in a similar fashion. All six receptor types were derived from the expressed receptor type (RARα, β, Γ and RXRα, β, Γ) expressed in Baculovirus. Stock solutions of all compounds were prepared as 10 mM ethanol solutions and serial dilutions carried out into 1:1 DMSO; ethanol. Assay buffers consisted of the following for all six receptor assays: 8% glycerol, 120 mM KCl 8 mM Tris, 5 mM CHAPS 4 mM DTT and 0.24 mM PMSF, pH-7.4@ room temperature.
(§2) All receptor binding assays were performed in the same manner. The final assay volume was 250 μl and contained from 10-40 μg of extract protein depending on receptor being assayed along with 5 nM of [^3H] all-trans retinoic acid or 10 nM [^3H] 9-cis retinoic acid and varying concentrations of competing ligand at concentrations that ranged from 0-10^−5 M. The assays were formatted for a 96 well minitube system. Incubations were carried out at 4° C. until equilibrium was achieved. Non-specific binding was defined as that binding remaining in the presence of 1000 nM of the appropriate unlabeled retinoic acid isomer. At the end of the incubation period, 50 μl of 6.25% hydroxyapitite was added in the appropriate wash buffer. The wash buffer consisted of 100 mM KCl, 10 mM Tris and either 5 mM CHAPS (RXRα, β, Γ) or 0.5% Triton X-100 (RARα, β, Γ). The mixture was vortexed and incubated for 10 minutes at 4° C., centrifuged and the supernatant removed. The hydroxyapitite was washed three more times with the appropriate wash buffer. The receptor-ligand complex was adsorbed by the hydroxyapitite. The amount of receptor-ligand complex was determined by liquid scintillation counting of hydroxyapitite pellet.
(§3) After correcting for non-specific binding, IC50 values were determined. […] The IC50 value was determined graphically from a loglogit plot of the data. The […] were determined by application of the Cheng-Prussof equation to the IC50 values, the labeled ligand concentration and the Kd of the labeled ligand.
(§4) The results of ligand binding assay are expressed in Kd numbers. (See Cheng et al. Biochemical Pharmacology Vol. 22 pp 3099-3108, expressly incorporated herein by reference.)

In assay [1] the test system is AML-193 cells (acute monocytic leukemia). Kind of assay: AML 193 cell culture assay (3H-thymidine incorporation). In kind it is cell-based, human. As to conditions: low concentrations; for growth of AML 193 cells at low concentrations: FIG. 2. The method, then: (§5) All trans-retinoic acid (t-RA) (Sigma Chemicals Co., St. Louis, Mo.) was stored at −70° C. Prior to each experiment the compound was dissolved in 100% ethanol at 1 mM and diluted in culture medium immediately before use. All experiments were performed in subdued light. Controls were assayed using the same concentration of ethanol as present in the experimental plates and this concentration of diluent had no effect in either assay.
AML-193 was established from the blast cells classified as M5 Acute Monocyte Leukemia. The growth factor, […] (GM-CSF) was required to establish this cell line and growth factors are necessary for its continuous proliferation in chemically defined medium. AML-193 cells were grown and maintained in Iscove's modified Dulbecco's medium supplemented with 10% fetal bovine serum, glutamine and antibiotics with 5 μg/ml insulin (Sigma Chemical Co.) and 2 ng/ml rh GM-CSF (R and D Systems). The cells were diluted to a concentration of 3×10^5/ml twice a week.
(§6) AML-193 cells were plated in a 96 well round bottom microtiter plate (Costar) at a density of 1,000 cells/well. To appropriate wells, retinoid test compounds were added at the final concentrations indicated for a final volume of 150 μl/well. The plates were incubated for 96 hours at 37° C. in a humidified atmosphere of 5% CO2 in air. Subsequently, 1 μCi of [5′-^3H]-thymidine (Amersham, U.K., 43 Ci/mmol specific activity) in 25 μl culture medium was added to each well and the cells were incubated for an additional 6 hours.
(§7) The cell lines were then processed as follows: the cellular DNA was precipitated with 10% trichloroacetic acid onto glass fiber filter mats using a SKATRON multi-well cell harvester (Skatron Instruments, Sterling Va.). Radioactivity incorporated into DNA, as a direct measurement of cell growth, was measured by liquid scintillation counting. The numbers represent the mean disintegrations per minute of incorporated thymidine from triplicate wells±SEM.
(In general: Dividing cells build labelled thymidine or BrdU into new DNA.)

A further assay addresses T2, RARα (Homo sapiens, UniProt P10276).
T2 construct: made in house; host or cells: Baculovirus expression (insect cell extract)
T2 sequence (P10276 1-462): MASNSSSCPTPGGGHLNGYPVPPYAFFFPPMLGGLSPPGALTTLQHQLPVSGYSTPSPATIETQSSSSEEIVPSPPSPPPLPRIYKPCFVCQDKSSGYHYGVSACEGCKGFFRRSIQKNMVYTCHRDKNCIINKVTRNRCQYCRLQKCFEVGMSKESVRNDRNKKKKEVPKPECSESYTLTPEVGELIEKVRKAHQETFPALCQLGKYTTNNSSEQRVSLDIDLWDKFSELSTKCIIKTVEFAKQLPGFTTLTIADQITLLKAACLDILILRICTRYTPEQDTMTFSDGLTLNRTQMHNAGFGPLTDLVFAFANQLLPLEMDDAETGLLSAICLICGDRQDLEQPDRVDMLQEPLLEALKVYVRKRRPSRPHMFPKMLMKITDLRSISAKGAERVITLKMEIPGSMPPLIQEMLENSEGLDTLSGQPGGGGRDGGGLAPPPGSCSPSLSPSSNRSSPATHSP
Kind of assay: Ligand binding assay, RARα. The method, then:
as §1, §2, §3
The results of ligand binding assay are expressed in Kd numbers. […]

Another assay addresses T3, RARΓ (Homo sapiens, UniProt P13631).
T3 construct: made in house; host or cells: Baculovirus expression (insect cell extract)
T3 sequence (P13631 1-454): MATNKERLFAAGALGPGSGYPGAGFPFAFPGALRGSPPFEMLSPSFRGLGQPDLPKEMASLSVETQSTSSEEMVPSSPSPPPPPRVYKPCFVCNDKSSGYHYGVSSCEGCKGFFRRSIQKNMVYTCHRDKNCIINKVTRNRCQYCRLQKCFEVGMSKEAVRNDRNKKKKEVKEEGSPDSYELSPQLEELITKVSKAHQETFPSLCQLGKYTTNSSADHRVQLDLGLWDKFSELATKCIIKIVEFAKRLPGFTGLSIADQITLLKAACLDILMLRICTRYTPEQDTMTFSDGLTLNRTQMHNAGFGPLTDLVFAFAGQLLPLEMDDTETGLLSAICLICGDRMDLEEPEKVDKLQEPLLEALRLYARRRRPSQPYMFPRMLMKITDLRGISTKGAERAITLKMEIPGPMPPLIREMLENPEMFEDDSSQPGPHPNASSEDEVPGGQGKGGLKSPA
Kind of assay: Ligand binding assay, RARΓ. The protocol:
as §1, §2, §3, §4

Assay [2] relates to limb bud mesenchymal cells. Nature of the assay: Chondrogenesis suppression bioassay (teratogenic potency). The note with it: read-out: IC50 (50% inhibition of chondrogenesis); mouse limb bud spot cultures, 96 hours after plating; greater IC50 signifies lesser teratogenecity. The class given is cell-based. The protocol: High-density “spot” cultures of limb bud mesenchymal cells are used to compare the ability of various concentrations of test drugs to suppress chondrogenic differentiation as a bioassay. Forelimb buds of mouse embryos on day 12 of gestation (54±2 somites) are dissociated in a trypsin-EDTA solution, and the resultant single-cell suspension is plated as 20-μl spots (200,000 cells/spot) on plastic culture dishes. Retinoid concentrations ranging from 0.3 ng/ml to 3 μg/ml (1 nM−10 μM) are added to the culture medium (Eagle's MEM±10% fetal bovine serum, GIBCO) 24 hours after initial plating. Control cultures receive only the vehicle (ethanol, concentration≦1% by vol); Retinoic acid is used as a positive control in another set of cultures.
The cultures are terminated 96 hours after plating, at which time the medium is removed and the cells are fixed for 1 hour in 10% formalin containing 0.5% cetylpyridinium chloride. The cultures are rinsed in acetic acid and stained for 1 hour in 0.5% Alcian blue solution at pH 1.0, differentiated in 3% acetic acid, and then dehydrated in ethanol and scored for chondrogenesis under the microscope. An absence or reduction in the number of cartilage nodules in stained cultures as compared with control cultures is taken as a measure of suppression of chondrogenesis. The number of cartilage nodules stained in the whole spot, mean number of nodules, and standard deviations are calculated for four replicate cultures per treatment. […] The IC50 values are expressed in nanogram per mililiter (ng/ml) units. An IC50 value of greater concentration in this assay signifies lesser teratogenecity.

In assay [3] the test system is retinal pigment epithelium (RPE) cells. Kind of assay: Primary RPE culture proliferation. As to conditions: FIG. 5; 10^−10 to 10^−6 M, six days treatment. The class given is cell-based, human. The method, then:
Primary cultures of human retinal pigment epithelium (RPE) were established from eyes as previously described, (Campochiaro et al., Invest. Opthal & Vis. Sci. 32:65-72 (1991)). 5×10^4 Cells were plated in 16-mm wells of 24-well multiwell plates in Dulbecco's modified Eagle's medium (DMEM Gibco) containing 10% fetal bovine serum (FBS). Cells were treated with ethanol alone (control), ATRA (10^−10 to 10^−6 M) in ethanol, and Compound 42 (10^−10 to 10^−6 M) in ethanol. Cells were fed with fresh media containing the appropriate concentrations of these compounds every two days for a total of six days treatment. Cells were removed from the plates via treatment with trypsin and the number of cells were counted with an electronic cell counter.

Assay [4] relates to RPMI 8226 cells (malignant myeloma). Kind of assay: RPMI 8226 cell culture assay (3H-thymidine incorporation). The class given is cell-based, human. The note with it: FIG. 1; low concentration range 10^−12 to approximately 10^−9. The method, then:
as §5
The cell lines, RPMI 8226, ME-180 and AML-193 were obtained from the American Type Culture Collection (ATCC, Rockville, Md.). RPMI 8226 is a human hematopoietic cell line obtained from the peripheral blood of a patient with multiple myeloma. The cells resemble the lymphoblastoid cells of other human lymphocyte cell lines and secrete […] light chains of immunoglobulin. RPMI-8226 cells are grown in RPMI medium (Gibco) supplemented with 10% fetal bovine serum, glutamine and antibiotics. The cells were maintained as suspension cultures grown at 37° C. in a humidified atmosphere of 5% CO2 in air. The cells were diluted to a concentration of 1×10^5/ml twice a week.
as §6, with “The method used for determination of the incorporation of radiolabeled thymidine was adapted from the procedure described by Shrivastav et al. RPMI-8226” for “AML-193”, “U.K.” for “U.K.,”, “hours. The cultures were further processed as described below.” for “hours.”
as §7

Four compounds from patent publication US6610744B2, “Methods of treatment with compounds having RARα receptor specific or selective activity” (Allergan, Inc., priority 1995, dated 2003) can be followed below.

≈ marks a conversion by molar mass, not a printed value.

The Kd is a measure of binding affinity in units of concentration. High values mean a looser complex, low ones a tighter complex. Consider `CC1(C)CC=C(C#N)c2cc(C#Cc3ccc(C(=O)O)cc3)ccc21` [AGN 193090, 4-[(8-cyano-5,6-dihydro-5,5-dimethylnaphth-2-yl)ethynyl]benzoic acid, reference compound], for which the dissociation constant (Kd) on RARβ worked out at 34 nM; at RARα it was 109 nM; at RARΓ, 77 nM. In addition, the “growth of AML 193 cells at low concentrations” value in assay [1] is “do not inhibit but rather at these low concentrations even stimulate such cell growth”.
For `CC(C)(C)C=C1CCC(C)(C)c2ccc(C#Cc3ccc(C(=O)O)cc3)cc21` [AGN 193459, 4-[(5,6-dihydro-5,5-dimethylnaphth-7(6H)-8-(1-2,2-dimethylpropylidene)naphth-2-yl)ethynyl]benzoic acid, reference compound], in that order: 2 nM, 6 nM, 7 nM and “do not inhibit but rather at these low concentrations even stimulate such cell growth”.
One may read the IC50 as the concentration needed to halve the response being measured. In the case of `CC1=C(/C=C/C(C)=C/C=C/C(C)=C/C(=O)O)C(C)(C)CCC1` [ATRA, all trans retinoic acid, reference compound], in assay [2], the IC50 was 0.055 µg/mL (≈ 0.183 µM). Moreover, the RPE cell proliferation result in assay [3] is on record as “dose dependent decrease in RPE cell proliferation”. For the same compound, the “AML-193 cell proliferation at low concentrations” value in assay [1] (FIG. 3) was “promotes cell proliferation”. In addition, the “growth of RPMI 8226 cells at low concentration” value in assay [4] is given as “facilitates growth”.
On RARα, `CC1(C)CCC(C)(C)c2c1cc(C(=O)Nc1ccc(C(=O)O)c(F)c1)c(O)c2Br` [Compound 30] had a Kd of less than 3 nM.
